Laboratory results as given in ChEMBL document CHEMBL3351451, “In search of next generation antimalarials” (Bioorg Med Chem Lett, 2014).
Activity calls are given as the source filed them. No cut-off for these calls is given here.

Columns and labels:
Plasmodium berghei [1] = assay: Antimalarial activity against Plasmodium berghei infected in mouse assessed as cure at 160 mg/kg measured at 60 days post-infection; type: functional, organism-based; set-up: dose 160 mg/kg
Plasmodium berghei [2] = assay: Antimalarial activity against Plasmodium berghei infected in mouse assessed as cure at 40 mg/kg measured at 60 days post-infection; type: functional, organism-based; set-up: dose 40 mg/kg
Plasmodium berghei [3] = assay: Antimalarial activity against Plasmodium berghei infected in mouse assessed as cure at 80 mg/kg measured at 60 days post-infection; type: functional, organism-based; set-up: dose 80 mg/kg
Plasmodium berghei [4] = assay: Antimalarial activity against Plasmodium berghei infected in mouse assessed as survival time at 5 mg/kg (reference value: 6.1 days); type: functional
Plasmodium berghei [5] = assay: Antimalarial activity against Plasmodium berghei infected in mouse assessed as cure at 640 mg/kg measured at 60 days post-infection; type: functional, organism-based; set-up: dose 640 mg/kg
Plasmodium berghei [6] = assay: Antimalarial activity against Plasmodium berghei infected in mouse assessed as cure at 320 mg/kg measured at 60 days post-infection; type: functional, organism-based; set-up: dose 320 mg/kg
Plasmodium cynomolgi [7] = assay: Antimalarial activity against Plasmodium cynomolgi infected in rhesus monkey assessed as curative activity at 1 mg/kg administered daily for 7 days; type: functional, organism-based; set-up: dose 1 mg/kg
Plasmodium cynomolgi [8] = assay: Antimalarial activity against Plasmodium cynomolgi infected in rhesus monkey assessed as curative activity at 0.1 mg/kg administered daily for 7 days; type: functional, organism-based; set-up: dose 0.1 mg/kg
Plasmodium berghei [9] = assay: Antimalarial activity against Plasmodium berghei infected in mouse assessed as cure at 20 mg/kg measured at 60 days post-infection; type: functional, organism-based; set-up: dose 20 mg/kg
Mus musculus [10] = assay: Toxicity in mouse infected with Plasmodium berghei at 640 mg/kg; type: organism-based; set-up: dose 640 mg/kg; conditions: in vivo
Mus musculus [11] = assay: Toxicity in mouse infected with Plasmodium berghei at 160 mg/kg; type: organism-based; set-up: dose 160 mg/kg; conditions: in vivo
Plasmodium berghei [12] = assay: Antimalarial activity against Plasmodium berghei infected in mouse assessed as cure at 10 mg/kg measured at 60 days post-infection; type: functional, organism-based; set-up: dose 10 mg/kg
Mus musculus [13] = assay: Toxicity in mouse infected with Plasmodium berghei at 320 mg/kg; type: organism-based; set-up: dose 320 mg/kg; conditions: in vivo
Plasmodium berghei [14] = assay: Antimalarial activity against Plasmodium berghei infected in mouse assessed as cure at 5 mg/kg measured at 60 days post-infection; type: functional, organism-based; set-up: dose 5 mg/kg
Plasmodium cynomolgi [15] = assay: Antimalarial activity against Plasmodium cynomolgi infected in rhesus monkey assessed as curative activity at 0.316 mg/kg administered daily for 7 days; type: functional, organism-based; set-up: dose 0.316 mg/kg
Plasmodium berghei [16] = assay: Antimalarial activity against Plasmodium berghei infected in mouse assessed as survival time at 20 mg/kg (reference value: 6.1 days); type: functional

SMILES	Activity (Plasmodium berghei [1])	Activity (Plasmodium berghei [2])	Activity (Plasmodium berghei [3])	MST (Plasmodium berghei [4]) [days]	Activity (Plasmodium berghei [5])	Activity (Plasmodium berghei [6])	Activity (Plasmodium cynomolgi [7])	Activity (Plasmodium cynomolgi [8])	Activity (Plasmodium berghei [12])	Activity (Plasmodium cynomolgi [15])	also measured
COc1cc(NC(C)CCCN)c2nccc(C)c2c1OCCCCCc1ccco1.O=C(O)/C=C/C(=O)O (configuration not stated)	Active	Active	Active	7.7							
COc1cc(NC(C)CCCN)c2nccc(C)c2c1OCCCCCCCCc1ccccc1.O=C(O)/C=C/C(=O)O (configuration not stated)	Active	Active	Active	5.7	Active	Active					
COc1cc(NC(C)CCCN)c2nccc(C)c2c1OCCCCc1ccccc1.O=C(O)/C=C/C(=O)O (configuration not stated)			Active	7.6			Active	inactive			
COc1cc(NC(C)CCCN)c2nccc(C)c2c1OCCCCCc1cccs1.O=C(O)/C=C/C(=O)O (configuration not stated)		Active	Active	6.6							Activity (Plasmodium berghei [9]): Active
COc1cc(NC(C)CCCN)c2nccc(C)c2c1OCCCc1ccccc1.O=C(O)/C=C/C(=O)O (configuration not stated)							Active		Active		Activity (Mus musculus [10]): Toxic; Activity (Mus musculus [11]): Toxic; Activity (Mus musculus [13]): Toxic
CCCCCOc1c(OC)cc(NC(C)CCCN)c2nccc(C)c12 (configuration not stated)							Active		Active		Activity (Plasmodium berghei [14]): Active; Activity (Mus musculus [10]): Toxic; Activity (Mus musculus [13]): Toxic
COc1cc(NC(C)CCCN)c2nccc(C)c2c1OCCCCCCc1ccccc1.O=C(O)/C=C/C(=O)O (configuration not stated)				5.9			Active	inactive		Active	
COc1cc(NC(C)CCCN)c2nccc(C)c2c1OCCCCCc1ccccc1.O=C(O)/C=C/C(=O)O (configuration not stated)	Active	Active	Active	7.9			Active			Active	
COc1cc(NC(C)CCCN)c2nccc(C)c2c1OCCCCCCCc1ccccc1 (configuration not stated)	Active	Active	Active		Active	Active	Active	inactive	Active	inactive	Activity (Plasmodium berghei [9]): Active
COc1cc(NC(C)CCCN)c2nccc(C)c2c1OCCCCCCCCCc1ccccc1.O=C(O)/C=C/C(=O)O (configuration not stated)	Active				Active	Active					MST (Plasmodium berghei [16]): 8.5 days
